{
  "source": "paper PMC4546632",
  "about": "“Active Transport of Phosphorylated Carbohydrates Promotes Intestinal Colonization and Transmission of a Bacterial Pathogen” (PLoS Pathogens, 2015)",
  "details_in_all_cases": "20 mM Tris pH 8, 100 mM NaCl",
  "key": {"AfuA [1]": {"target": "T1, AfuA (Actinobacillus pleuropneumoniae, UniProt A3N294)", "T1 construct": "pET26b, periplasmic expression in E. coli (osmotic shock), N-terminal 6xHis tag cleaved by thrombin", "T1 sequence (A3N294 entry or part of it)": "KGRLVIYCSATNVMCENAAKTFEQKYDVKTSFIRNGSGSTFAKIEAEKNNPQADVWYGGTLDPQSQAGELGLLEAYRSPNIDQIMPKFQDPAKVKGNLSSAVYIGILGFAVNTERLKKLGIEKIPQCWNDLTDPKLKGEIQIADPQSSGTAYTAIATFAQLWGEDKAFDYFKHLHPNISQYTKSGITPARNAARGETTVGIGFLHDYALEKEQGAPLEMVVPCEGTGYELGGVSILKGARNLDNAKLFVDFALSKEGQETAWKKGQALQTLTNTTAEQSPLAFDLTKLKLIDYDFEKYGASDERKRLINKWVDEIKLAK", "experiment": "isothermal titration calorimetry", "type": "binding", "source_text": "isothermal titration calorimetry on AfuA"}, "C. rodentium AfuA": {"target": "T2, C. rodentium AfuA (Citrobacter rodentium, UniProt D2TKU7)", "T2 construct": "recombinant AfuA; construct details only in supplement", "T2 sequence (D2TKU7 entry or part of it)": "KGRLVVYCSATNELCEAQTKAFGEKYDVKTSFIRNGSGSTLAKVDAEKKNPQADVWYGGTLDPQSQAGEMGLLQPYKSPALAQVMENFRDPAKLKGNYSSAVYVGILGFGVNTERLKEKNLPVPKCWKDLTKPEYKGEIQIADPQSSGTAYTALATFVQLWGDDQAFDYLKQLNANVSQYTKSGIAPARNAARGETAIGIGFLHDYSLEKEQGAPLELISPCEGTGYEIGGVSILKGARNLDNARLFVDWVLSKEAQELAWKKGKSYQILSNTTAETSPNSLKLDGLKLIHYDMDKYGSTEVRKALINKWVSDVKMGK", "experiment": "isothermal titration calorimetry", "type": "binding", "source_text": "isothermal titration calorimetry on C. rodentium AfuA | These amounts exceed the Kd of C. rodentium AfuA for G6P or F6P"}, "AfuA [2]": {"target": "AfuA (Actinobacillus pleuropneumoniae, UniProt A3N294, S64D)", "sequence (A3N294 28-346 S64D)": "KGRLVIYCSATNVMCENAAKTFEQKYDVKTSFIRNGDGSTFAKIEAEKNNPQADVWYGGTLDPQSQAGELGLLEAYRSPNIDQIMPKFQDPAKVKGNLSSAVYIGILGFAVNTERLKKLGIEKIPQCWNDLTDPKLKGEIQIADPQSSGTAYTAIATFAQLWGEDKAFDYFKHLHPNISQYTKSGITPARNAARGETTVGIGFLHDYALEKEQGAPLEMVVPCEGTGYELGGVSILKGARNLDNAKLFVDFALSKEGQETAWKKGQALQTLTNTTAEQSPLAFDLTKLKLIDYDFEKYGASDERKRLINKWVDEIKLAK"}, "AfuA [3]": {"target": "AfuA (Actinobacillus pleuropneumoniae, UniProt A3N294, S64A)", "sequence (A3N294 28-346 S64A)": "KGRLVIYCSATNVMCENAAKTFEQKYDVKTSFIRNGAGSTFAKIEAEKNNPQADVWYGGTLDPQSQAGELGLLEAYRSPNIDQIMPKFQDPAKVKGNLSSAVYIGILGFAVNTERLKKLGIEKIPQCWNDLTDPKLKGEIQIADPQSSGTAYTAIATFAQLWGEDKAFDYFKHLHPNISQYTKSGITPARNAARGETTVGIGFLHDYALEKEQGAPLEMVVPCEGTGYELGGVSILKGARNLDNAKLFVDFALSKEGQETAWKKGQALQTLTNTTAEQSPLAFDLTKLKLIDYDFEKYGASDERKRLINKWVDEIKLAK"}, "AfuA [4]": {"target": "AfuA (Actinobacillus pleuropneumoniae, UniProt A3N294, T177A)", "sequence (A3N294 28-346 T177A)": "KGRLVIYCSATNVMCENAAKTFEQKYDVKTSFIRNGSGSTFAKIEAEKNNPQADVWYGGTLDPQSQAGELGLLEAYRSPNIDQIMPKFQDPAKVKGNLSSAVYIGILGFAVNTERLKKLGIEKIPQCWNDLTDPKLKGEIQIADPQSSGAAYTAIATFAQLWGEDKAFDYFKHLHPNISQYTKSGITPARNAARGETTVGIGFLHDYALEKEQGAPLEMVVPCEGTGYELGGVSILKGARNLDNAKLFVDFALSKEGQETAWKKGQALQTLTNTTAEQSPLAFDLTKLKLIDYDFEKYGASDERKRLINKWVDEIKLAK"}},
  "note": "Read-outs that look alike come from different tables or passages of the source.",
  "data": [
    {"smiles": "O=P(O)(O)OC[C@@H](O)[C@H]1OC(O)(CO)[C@@H](O)[C@@H]1O", "note": "(some centres unmarked) [Sedoheptulose-7-phosphate]", "values": [
      {"measurement": "Kd", "setting": "AfuA [1]", "value": "57 ± 22", "unit": "nM"}
    ]},
    {"smiles": "O=P(O)(O)OC[C@H]1OC(O)[C@@H](O)[C@@H](O)[C@@H]1O", "note": "(some centres unmarked) [Mannose-6-phosphate]", "values": [
      {"measurement": "Kd", "setting": "AfuA [1]; read-out: Kd", "value": "960 ± 150", "unit": "nM"}
    ]},
    {"smiles": "O=P(O)(O)OC[C@H]1OC(O)(CO)[C@@H](O)[C@@H]1O", "note": "(some centres unmarked) [Fructose-6-phosphate]", "values": [
      {"measurement": "Kd", "setting": "AfuA [1]; read-out: Kd", "value": "8 ± 1", "unit": "nM"}
    ]},
    {"smiles": "O=P(O)(O)OC[C@H]1OC(O)[C@H](O)[C@@H](O)[C@@H]1O", "note": "(some centres unmarked) [Glucose-6-phosphate]", "values": [
      {"measurement": "Kd", "setting": "C. rodentium AfuA", "value": "164 ± 94", "unit": "nM"},
      {"measurement": "Kd", "setting": "AfuA [1]; read-out: Kd", "value": "23 ± 4", "unit": "nM"},
      {"measurement": "Kd", "setting": "AfuA [2]", "value": "5500 ± 900", "unit": "nM"},
      {"measurement": "Kd", "setting": "AfuA [3]", "value": "900 ± 100", "unit": "nM"},
      {"measurement": "Kd", "setting": "AfuA [4]", "value": "3300 ± 200", "unit": "nM"}
    ]}
  ]
}
